PMC12481029, “Design, synthesis, antiproliferative assessments, and computational studies of new quinolin-2(1H)-ones as dual EGFR/HER-2 inhibitors” (Frontiers in Chemistry, 2025)
Where “and” joins values, the source holds several entries; their conditions need not be identical. Equal values may be shown once.

Assays:
[1] = test system: lung (A-549) cancer cell line; test: Antiproliferative assay, A-549; type: cell-based; details: Homo sapiens, A549; read-out: Antiproliferative activity IC50 ± SEM, A-549
Description: (§1) The MTT assay ([Al-Wahaibi et al., 2022]; [Mahmoud et al., 2023]) was employed to assess the antiproliferative effects of compounds 3a-h and 5a-g on four human cancer cell lines: colon (HT-29) cancer, pancreatic (Panc-1) cancer, lung (A-549) cancer, and breast (MCF-7) cancer cell lines. Erlotinib was applied as a reference. Table 1 presents the median inhibitory concentration (IC50) and average IC50 (GI50) values for each compound evaluated on the four cancer cell lines.
(§2) Compounds 3a-h and 5a-g were tested for their antiproliferative activities on four human cancer cell lines: colon (HT-29), pancreatic (Panc-1), lung (A-549), and breast (MCF-7) using the MTT assay ([Al-Wahaibi et al., 2022]; [Mahmoud et al., 2023]). Erlotinib was applied as a reference.
(§3) To explore the antiproliferative potential of compounds propidium iodide fluorescence assay was performed using different cell lines such as Panc-1 (pancreas cancer cell line), MCF-7 (breast cancer cell line), HT-29 (colon cancer cell line) and A-549 (epithelial cancer cell line), respectively. To calculate the total nuclear DNA, a fluorescent dye (propidium iodide, PI) is used which can attach to the DNA, thus offering a quick and precise technique. PI cannot pass through the cell membrane and its signal intensity can be considered as directly proportional to quantity of cellular DNA. Cells whose cell membranes are damaged or have changed permeability are counted as dead ones. The assay was performed by seeding the cells of different cell lines at a density of 3000-7500 cells/well (in 200μl medium) in culture plates followed by incubation for 24h at 37 °C in humidified 5%CO2/95% air atmospheric conditions. The medium was removed; the compounds were added to the plates at 10 μM concentrations (in 0.1% DMSO) in triplicates, followed by incubation for 48h. DMSO (0.1%) was used as control. After incubation, medium was removed followed by the addition of PI (25 μl, 50μg/mL in water/medium) to each well of the plates. At -80 °C, the plates were allowed to freeze for 24 h, followed by thawing at 25 °C. A fluorometer (Polar-Star BMG Tech) was used to record the readings at excitation and emission wavelengths of 530 and 620 nm for each well. The percentage cytotoxicity of compounds was calculated using the following formula: […]

[2] = test system: breast (MCF-7) cancer cell line; test: Antiproliferative assay, MCF-7; type: cell-based; details: Homo sapiens, MCF7; read-out: Antiproliferative activity IC50 ± SEM, MCF-7
Description: as §1, §2, §3

[3] = test system: pancreatic (Panc-1) cancer cell line; test: Antiproliferative assay, Panc-1; type: cell-based; details: Homo sapiens, read-out: Antiproliferative activity IC50 ± SEM, Panc-1
Description: as §1, §2, §3

[4] = test system: colon (HT-29) cancer cell line; test: Antiproliferative assay, HT-29; type: cell-based; details: Homo sapiens, read-out: Antiproliferative activity IC50 ± SEM, HT-29
[5] = test system: four human cancer cell lines (A-549, MCF-7, Panc-1, HT-29); test: Antiproliferative assay, average over four cancer cell lines; type: cell-based; details: for GI50: Homo sapiens, average IC50 over the four cancer cell lines; for Potency reduction (fold) compared to 3d (GI50): ratio to 3d GI50 = 41 nM
[6] = Cell viability assay (MTT), normal mammary cells; details: human, MCF-10A normal mammary epithelial cells
Protocol: (§4) MTT assay was performed to investigate the effect of the synthesized compounds on mammary epithelial cells (MCF-10A). The cells were propagated in medium consisting of Ham's F-12 medium/ Dulbecco's modified Eagle's medium (DMEM) (1:1) supplemented with 10% foetal calf serum, 2 mM glutamine, insulin (10 μg/mL), hydrocortisone (500 ng/mL) and epidermal growth factor (20 ng/mL). Trypsin ethylenediamine tetra acetic acid (EDTA) was used to passage the cells after every 2-3 days. 96-well flat-bottomed cell culture plates were used to seed the cells at a density of 10^4 cells mL^-1. The medium was aspirated from all the wells of culture plates after 24 h followed by the addition of synthesized compounds (in 200 μL medium to yield a final concentration of 0.1% (v/v) dimethyl sulfoxide) into individual wells of the plates. Four wells were designated to a single compound. The plates were allowed to incubate at 37°C for 96 h. Afterwards, the medium was aspirated and 3-[4,5-dimethylthiazol-2-yl]-2,5-diphenyltetrazolium bromide (MTT) (0.4 mg/mL) in medium was added to each well and subsequently incubated for 3 h. The medium was aspirated and 150 μL dimethyl sulfoxide (DMSO) was added to each well. The plates were vortexed followed by the measurement of absorbance at 540 nm on a microplate reader.

EGFR = EGFR (Homo sapiens, UniProt P00533); test: EGFR inhibitory assay (EGFR-TK test); details: for IC50: EGFR inhibition IC50 ± SEM; for Fold less effective than erlotinib, EGFR inhibition: ratio to erlotinib IC50
Protocol: 5ʹ upstream to the EGFR sequence comprised a sequence that encoded (His)6. Sf-9 cells were infected for 72h for protein expression. The pellets of Sf-9 cells were solubilized in a buffer containing sodium vanadate (100 μM), aprotinin (10 μg/mL), triton (1%), HEPES buffer(50mM), ammonium molybdate (10 μM), benzamidine HCl (16 μg/mL), NaCl (10 mM),leupeptin (10 μg/mL) and pepstatin (10 μg/mL) at 0°C for 20 min at pH 7.4, followed by centrifugation for 20 min. To eliminate the nonspecifically bound material, a Ni-NTA super flow packed column was used to pass through and wash the crude extract supernatant first with 10mM and then with 100 mM imidazole. Histidine-linked proteins were first eluted with 250 and then with 500 mM imidazole subsequent to dialysis against NaCl (50 mM), HEPES (20 mM), glycerol (10%) and 1 μg/mL each of aprotinin, leupeptin and pepstatin for 120 min. The purification was performed either at 4 °C or on ice. To record autophosphorylation level, EGFR kinase assay was carried out on the basis of DELFIA/Time-Resolved Fluorometry. […] Each compound (10 μL) was incubated with recombinant enzyme (10 μL, 5 ng for EGFR, 1:80 dilution in 100 mM HEPES) for 10 min at 25 °C, subsequent to the addition of 5X buffer (10 μL, containing 2 mM MnCl2, 100 μM Na3VO4, 20 mM HEPES and 1 mM DTT) and ATP-MgCl2 (20 μL, containing 0.1 mM ATP and 50 mM MgCl2) and incubation for 1h. The negative and positive controls were included in each plate by the incubation of enzyme either with or without ATP-MgCl2. The liquid was removed after incubation and the plates were washed thrice using a wash buffer. The Europium-tagged antiphosphotyrosine antibody (75 μL, 400 ng) was added to each well followed by incubation of 1h and then washing of the plates using buffer. […] The autophosphorylation percentage inhibition by compounds was calculated using the following equation:
The majority of signals detected by antiphosphotyrosine antibody were from EGFR because the enzyme preparation contained low impurities.

HER-2 = HER-2 (Homo sapiens, UniProt P04626); test: HER-2 inhibitory assay (ADP-Glo kinase assay)
Protocol: The ADP-Glo™ Kinase Assay was used for kinase activity detection, related kinases information: HER-2 (ab60866, Abcam), with a concentration of 100 ng/mL. Target compounds were dissolved in DMSO to obtain drug solutions with different concentrations, and the compound concentrations in the final reaction system (100 μL) were 1 nM, 20 nM, 40 nM, 80 nM, and 100 nM, respectively. 10μL of the solution containing compounds was transferred to a 96-well plate, then added 40 μL of 1 × kinase buffer (50 mM HEPES, pH 7.5) to each well, and mixed the mixture in the 96-well plate on a shaker for 10 min. Next, added 25 μL of ADP-Glo™ reagent to the above wells, mixed and incubated for another 40 min. Distributed 10 μL kinase detection reagent to the reaction and incubated for 30 min. Finally, the full-wavelength microplate reader was used to record the OD value.

in vitro = details: human
Protocol: as §4

Caspase-9 = Caspase-9 activation assay; type: cell-based, human; details: MCF-7 cells
Protocol: To elucidate the apoptotic mechanism of compounds 3d and 5a, whether via the intrinsic or extrinsic pathway, their impact on caspase-8 and caspase-9 was evaluated.
RPMI 1640 with 10% FBS was used to assist the cells grow at 37 °C, and then the cells were treated with the compounds being studied to check the activity of caspase-3, -8, and -9 ([Hisham et al., 2019]). Refer to Supplementary Appendix A.
Cells were obtained from American Type Culture Collection, cells were grown in RPMI 1640 containing 10% fetal bovine serum at 37°C, stimulated with the compounds to be tested for caspase8, and lysed with Cell Extraction Buffer. This lysate was diluted in Standard Diluent Buffer over the range of the assay and measured for human active caspase-8 content. (Cells are Plated in a density of 1.2 – 1.8 × 10,000 cells/well in a volume of 100µl complete growth medium + 100 ul of the tested compound per well in a 96-well plate for 24 hours before the enzyme assay for Tubulin.). The absorbance of each microwell was read on a spectro-photometer at 450 nm. A standard curve is prepared from 7human Caspase-8 standard dilutions and human Caspase-8 concentration determined.

Bax = Bax level assay; details: MCF-7 cells
Protocol: Bring all reagents, except the human Bax-α Standard, to room temperature for at least 30 minutes prior to opening. The human Bax-α Standard solution should not be left at room temperature for more than 10 minutes. All standards, controls and samples should be run in duplicate. Refer to the Assay Layout Sheet to determine the number of wells to be used and put any remaining wells with the desiccant back into the pouch and seal the ziploc. Store unused wells at 4 °C. Pipet 100 μL of Assay Buffer into the S0 (0 pg/mL standard) wells. Pipet 100 μL of Standards #1 through #6 into the appropriate wells. Pipet 100 μL of the Samples into the appropriate wells. Tap the plate gently to mix the contents. Seal the plate and incubate at room temperature on a plate shaker for 1 hour at ~500 rpm. Empty the contents of the wells and wash by adding 400 μL of wash solution to every well. Repeat the wash 4 more times for a total of 5 washes. After the final wash, empty or aspirate the wells and firmly tap the plate on a lint free paper towel to remove any remaining wash buffer. Pipet 100 μL of yellow Antibody into each well, except the Blank. Seal the plate and incubate at room temperature on a plate shaker for 1 hour at ~500 rpm. Empty the contents of the wells and wash by adding 400 μL of wash solution to every well. Repeat the wash 4 more times for a total of 5 washes. After the final wash, empty or aspirate the wells and firmly tap the plate on a lint free paper towel to remove any remaining wash buffer. Add 100 μL of blue Conjugate to each well, except the Blank. Seal the plate and incubate at room temperature on a plate shaker for 30 minutes at ~500 rpm. Empty the contents of the wells and wash by adding 400 μL of wash solution to every well. Repeat the wash 4 more times for a total of 5 washes. After the final wash, empty or aspirate the wells and firmly tap the plate on a lint free paper towel to remove any remaining wash buffer. Pipet 100 μL of Substrate Solution into each well. Incubate for 30 minutes at room temperature on a plate shaker at ~500 rpm. Pipet 100 μL Stop Solution to each well. Blank the plate reader against the Blank wells, read the optical density at 450 nm. Calculate the average net Optical Density (OD) bound for each standard and sample by subtracting the average Blank OD from the average OD for each standard and sample. Using linear graph paper, plot the Average Net OD for each standard versus Bax concentration in each standard. Approximate a straight line through the points. The concentration of Bax in the unknowns can be determined by interpolation.

Bcl-2 = Bcl-2 level assay; details: MCF-7 cells
Protocol: Mix all reagents thoroughly without foaming before use. Wash the microwells twice with approximately 300 μL Wash Buffer per well with thorough aspiration of microwell contents between washes. Take caution not to scratch the surface of the microwells. After the last wash, empty the wells and tap microwell strips on absorbent pad or paper towel to remove excess Wash Buffer. Use the microwell strips immediately after washing or place upside down on a wet absorbent paper for not longer than 15 minutes. […] Add 100 μL of Sample Diluent in duplicate to all standard wells and to the blank wells. […] Add 100 μL of Sample Diluent, in duplicate, to the blank wells. Add 80 μL of Sample Diluent, in duplicate, to the sample wells. Add 20 μL of each Sample, in duplicate, to the designated wells. Add 50 μL of diluted biotin-conjugate to all wells, including the blank wells. Cover with a plate cover and incubate at room temperature, on a microplate shaker at 100 rpm if available, for 2 hours. Remove plate cover and empty the wells. Wash microwell strips 3 times as described in step 2. Add 100 μL of diluted Streptavidin-HRP to all wells, including the blank wells. Cover with a plate cover and incubate at room temperature, on a microplate shaker at 100 rpm if available, for 1 hour. Remove plate cover and empty the wells. Wash microwell strips 3 times as described in step 2. […] Pipette 100 μl of mixed TMB Substrate Solution to all wells, including the blanks. Incubate the microwell strips at room temperature (18° to 25°C) for about 15 minutes, if available on a rotator set at 100 rpm. Avoid direct exposure to intense light. The point, at which the substrate reaction is stopped, is often determined by the ELISA reader. Many ELISA readers record absorbance only up to 2.0 O.D. Therefore, the color development within individual microwells must be watched by the person running the assay and the substrate reaction stopped before positive wells are no longer properly detectable. Stop the enzyme reaction by quickly pipetting 100 μL of Stop Solution into each well, including the blank wells. It is important that the Stop Solution is spread quickly and uniformly throughout the microwells to completely inactivate the enzyme. Results must be read immediately after the Stop Solution is added or within one hour if the microwell strips are stored at 2 - 8°C in the dark. Read absorbance of each microwell on a spectrophotometer using 450 nm as the primary wavelength.

Cytochrome C = Cytochrome C assay; details: MCF-7 cells
Protocol: This lysate was diluted in Standard Diluent Buffer over the range of the assay and measured for cytochrome C content. (Cells are Plated in cells/well in a volume of 100µl complete growth medium + 100 µl of the tested compound + 50 µl of 1X biotin conjugated antibody+ 100 µl of 1X streptavidin-HRP+ 100 µL TMB substrate solution of per well in a 96-well plate for 24 hours before assay).

Chain of HER-2 (P04626 676-1255 limits assumed): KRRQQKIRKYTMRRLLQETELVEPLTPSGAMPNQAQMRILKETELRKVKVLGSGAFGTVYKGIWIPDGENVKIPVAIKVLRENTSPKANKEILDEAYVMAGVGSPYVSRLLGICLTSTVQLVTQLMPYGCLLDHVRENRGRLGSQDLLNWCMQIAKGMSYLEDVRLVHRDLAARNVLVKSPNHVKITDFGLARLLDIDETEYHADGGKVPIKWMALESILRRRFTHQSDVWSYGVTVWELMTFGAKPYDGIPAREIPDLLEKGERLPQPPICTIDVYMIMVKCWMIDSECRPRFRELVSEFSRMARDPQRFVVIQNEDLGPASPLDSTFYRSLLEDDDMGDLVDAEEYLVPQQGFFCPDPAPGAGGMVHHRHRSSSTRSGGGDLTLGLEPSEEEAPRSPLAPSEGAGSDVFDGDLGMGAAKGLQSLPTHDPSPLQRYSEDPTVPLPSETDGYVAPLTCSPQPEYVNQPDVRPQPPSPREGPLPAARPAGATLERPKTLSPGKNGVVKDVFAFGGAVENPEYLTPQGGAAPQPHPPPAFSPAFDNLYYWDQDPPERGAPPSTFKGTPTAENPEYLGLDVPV
Chain of EGFR (P00533 669-1210): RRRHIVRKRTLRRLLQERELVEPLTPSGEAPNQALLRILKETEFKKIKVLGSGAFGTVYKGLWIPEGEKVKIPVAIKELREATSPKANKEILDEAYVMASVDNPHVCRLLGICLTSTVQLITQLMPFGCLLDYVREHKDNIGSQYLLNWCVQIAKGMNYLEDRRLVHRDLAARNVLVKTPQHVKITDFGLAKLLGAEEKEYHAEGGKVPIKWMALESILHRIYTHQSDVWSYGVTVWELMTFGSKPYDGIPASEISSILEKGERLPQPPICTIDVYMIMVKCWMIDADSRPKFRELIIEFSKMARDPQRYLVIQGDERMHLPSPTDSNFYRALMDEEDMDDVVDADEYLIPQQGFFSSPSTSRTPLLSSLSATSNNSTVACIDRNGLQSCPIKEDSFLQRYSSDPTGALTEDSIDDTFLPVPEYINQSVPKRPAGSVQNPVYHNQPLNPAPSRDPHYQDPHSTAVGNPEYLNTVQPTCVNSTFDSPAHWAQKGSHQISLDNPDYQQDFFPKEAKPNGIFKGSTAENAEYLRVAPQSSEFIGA

| IC50 [1] [nM] | IC50 [2] [nM] | IC50 [3] [nM] | IC50 [4] [nM] | GI50 [5] [nM] | Potency reduction (fold) compared to 3d (GI50) [5] | IC50 (EGFR) | Fold less effective than erlotinib, EGFR inhibition (EGFR) | IC50 (HER-2) [nM] | SMILES | viability at 4 days, 50 µM [6] [%] | viability at 4 days, 50 µM (in vitro) [%] | Caspase-9 Conc (Caspase-9) [ng/mL] | Bax Conc (Bax) [pg/mL] | Bax Conc (Bax; listed as staurosporine) [pg/mL] | Bcl-2 Conc (Bcl-2) [ng/mL] | Cytochrome C Conc (Cytochrome C) [ng/mL] |
| --- | --- | --- | --- | --- | --- | --- | --- | --- | --- | --- | --- | --- | --- | --- | --- | --- |
| 92 ± 9 | 89 ± 8 | 94 ± 9 | 94 ± 9 | 92 | at least 2.3 |  |  |  | Cc1ccc(S(=O)(=O)N/N=C/c2c(O)c3ccccc3n(C)c2=O)cc1 [Compound 3a, (E)-N'-((4-hydroxy-1-methyl-2-oxo-1,2-dihydroquinolin-3-yl)methylene)-4-methylbenzenesulfonohydrazide] | 90 |  |  |  |  |  |  |
| 56 ± 5 | 52 ± 5 | 56 ± 5 | 58 ± 5 | 56 | 1.4 |  |  |  | COc1ccc2[nH]c(=O)c(/C=N/NS(=O)(=O)c3ccc(C)cc3)c(O)c2c1 [Compound 3b, (E)-N'-((4-hydroxy-6-methoxy-2-oxo-1,2-dihydroquinolin-3-yl)methylene)-4-methyl benzenesulfonohydrazide] | 92 |  |  |  |  |  |  |
| 50 ± 5 | 48 ± 4 | 53 ± 5 | 52 ± 4 | 51 | 1.3 | 95 nM and 99 nM | 1.2 | 49 ± 3 | Cc1ccc(S(=O)(=O)N/N=C/c2c(O)c3cc(C)ccc3[nH]c2=O)cc1 [Compound 3c, (E)-N'-((4-hydroxy-6-methyl-2-oxo-1,2-dihydroquinolin-3-yl)methylene)-4-methylbenzenesulfonohydrazide] | 86 |  |  |  |  |  |  |
| 62 ± 6 | 61 ± 6 | 64 ± 6 | 64 ± 6 | 63 |  |  |  |  | CCn1c(=O)c(/C=N/NS(=O)(=O)c2ccc(C)cc2)c(O)c2ccccc21 [Compound 3e, (E)-N'-((1-Ethyl-4-hydroxy-2-oxo-1,2-dihydroquinolin-3-yl)methylene)-4-methyl benzenesulfonohydrazide] | 89 |  |  |  |  |  |  |
| 46 ± 4 | 43 ± 4 | 46 ± 4 | 48 ± 4 | 46 |  | 99 nM and 95 nM | 1.2 | 44 ± 3 | Cc1ccc(S(=O)(=O)N/N=C/c2c(O)c3cc(Cl)ccc3[nH]c2=O)cc1 [Compound 3f, (E)-N'-((6-chloro-4-hydroxy-2-oxo-1,2-dihydroquinolin-3-yl)methylene)-4-methyl benzenesulfonohydrazide] | 90 |  |  |  |  |  |  |
| 94 ± 9 | 90 ± 9 | 94 ± 9 | 96 ± 9 | 94 | at least 2.3 |  |  |  | Cc1ccc(S(=O)(=O)N/N=C/c2c(O)c3ccc(C)cc3[nH]c2=O)cc1 [Compound 3g, (E)-N'-((4-hydroxy-7-methyl-2-oxo-1,2-dihydroquinolin-3-yl)methylene)-4-methyl benzenesulfonohydrazide] | 87 |  |  |  |  |  |  |
| > 100 | > 100 | > 100 | > 100 | > 100 | at least 2.3 |  |  |  | Cc1ccc(S(=O)(=O)N/N=C/c2c(O)c3cccc(C)c3[nH]c2=O)cc1 [Compound 3h, (E)-N'-((4-hydroxy-8-methyl-2-oxo-1,2-dihydroquinolin-3-yl)methylene)-4-methyl benzenesulfonohydrazide] | 90 |  |  |  |  |  |  |
|  |  |  |  |  |  |  |  |  | CN[C@@H]1C[C@H]2O[C@@](C)([C@@H]1OC)n1c3ccccc3c3c4c(c5c6ccccc6n2c5c31)C(=O)NC4 [Staurosporine, reference compound] |  |  | 20 ± 1 | 290 ± 2 | 290 | 1.00 | 0.50 |

| SMILES | IC50 [1] [nM] | IC50 [2] [nM] | IC50 [3] [nM] | IC50 [4] [nM] | GI50 [5] [nM] | Potency reduction (fold) compared to 3d (GI50) [5] | IC50 (EGFR) | Fold less effective than erlotinib, EGFR inhibition (EGFR) | IC50 (HER-2) [nM] | viability at 4 days, 50 µM [6] [%] | viability at 4 days, 50 µM (in vitro) [%] | Caspase-9 Conc (Caspase-9) [ng/mL] | Bax Conc (Bax) [pg/mL] | Bax Conc (Bax; listed as staurosporine) [pg/mL] | Bcl-2 Conc (Bcl-2) [ng/mL] | Cytochrome C Conc (Cytochrome C) [ng/mL] |
| --- | --- | --- | --- | --- | --- | --- | --- | --- | --- | --- | --- | --- | --- | --- | --- | --- |
| Cc1ccc2[nH]c(=O)c(/C=N/Nc3ccc([N+](=O)[O-])cc3[N+](=O)[O-])c(O)c2c1 [Compound 5b, (E)-3-((2-(2,4-Dinitrophenyl)hydrazono)methyl)-4-hydroxy-6-methyl quinolin-2(1H)-one] | 52 ± 5 | 50 ± 5 | 54 ± 5 | 54 ± 5 | 53 |  | 106 ± 7 nM |  | 56 ± 4 | 90 |  |  |  |  |  |  |
| COc1ccc2[nH]c(=O)c(/C=N/Nc3ccc([N+](=O)[O-])cc3[N+](=O)[O-])c(O)c2c1 [Compound 5c, (E)-3-((2-(2,4-Dinitrophenyl)hydrazono)methyl)-4-hydroxy-6-methoxy quinolin-2(1H)-one] | 65 ± 6 | 62 ± 6 | 69 ± 6 | 68 ± 6 | 66 |  |  |  |  |  | 89 |  |  |  |  |  |
| Cc1cccc2c(O)c(/C=N/Nc3ccc([N+](=O)[O-])cc3[N+](=O)[O-])c(=O)[nH]c12 [Compound 5d, (E)-3-((2-(2,4-Dinitrophenyl)hydrazono)methyl)-4-hydroxy-8-methyl quinolin-2(1H)-one] | 71 ± 7 | 67 ± 6 | 74 ± 7 | 74 ± 7 | 72 |  |  |  |  |  | 92 |  |  |  |  |  |
| Cn1c(=O)c(/C=N/Nc2ccc([N+](=O)[O-])cc2[N+](=O)[O-])c(O)c2ccccc21 [Compound 5e, (E)-3-((2-(2,4-Dinitrophenyl)hydrazono)methyl)-4-hydroxy-1-methyl quinolin-2(1H)-one] | 76 ± 7 | 74 ± 7 | 76 ± 7 | 78 ± 7 | 76 |  |  |  |  |  | 87 |  |  |  |  |  |
| Cc1ccc2c(O)c(/C=N/Nc3ccc([N+](=O)[O-])cc3[N+](=O)[O-])c(=O)[nH]c2c1 [Compound 5f, (E)-3-((2-(2,4-Dinitrophenyl)hydrazono)methyl)-4-hydroxy-7-methyl quinolin-2(1H)-one] | 85 ± 8 | 83 ± 8 | 86 ± 8 | 86 ± 8 | 85 |  |  |  |  |  | 90 |  |  |  |  |  |
| O=c1[nH]c2ccc(Cl)cc2c(O)c1/C=N/Nc1ccc([N+](=O)[O-])cc1[N+](=O)[O-] [Compound 5g, (E)-6-Chloro-3-((2-(2,4-dinitrophenyl)hydrazono)methyl)-4-hydroxy quinolin-2(1H)-one] | 81 ± 8 | 78 ± 7 | 82 ± 8 | 82 ± 8 | 81 |  |  |  |  |  | 91 |  |  |  |  |  |
